This is an account of results in patent US20240262795A1, “PYRAZINE COMPOUNDS AS INHIBITORS OF FLT3” (Biomea Fusion, Inc., priority 2021, published 2024).

A word on the IC50: it is the concentration needed to halve the response being measured.

Like-named read-outs stand apart in the source and are kept apart here.

One assay has as its system MOLM-13. The assay is described as follows: Proliferation inhibition, CellTiter-Glo, MOLM-13. It counts as cell-based, human. As to conditions: for IC50: Homo sapiens, MOLM-13 cells. In a few lines:
(§1)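 About 10,000 cells per well in RPMI-1640 with 10% FBS. Compounds added 2 h after seeding at eight concentrations in duplicate (0.2% DMSO as 100% proliferation), then incubated ~96 h at 37° C, 5% CO2. ATP measured by CellTiter-Glo luminescence; IC50 from four-parameter logistic fit.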
In general terms: Cellular ATP, detected with luciferase, serves as a proxy for viable cell number.

The test system of the next assay is MV-4-11. Kind of assay: Proliferation inhibition, CellTiter-Glo, MV-4-11. It counts as cell-based, human. The conditions noted are these: for IC50: Homo sapiens. In a few lines: as §1
In a further assay the test system is K-562. The assay is described as follows: Proliferation inhibition, CellTiter-Glo, K-562. It counts as cell-based, human. The conditions noted are these: for IC50: Homo sapiens. In outline: as §1
For the next assay, the target named is T1, WT FLT3 (Homo sapiens, UniProt P36888).
T1 construct: purchased Invitrogen PR4666C
T1 sequence (P36888 564-993 limits assumed): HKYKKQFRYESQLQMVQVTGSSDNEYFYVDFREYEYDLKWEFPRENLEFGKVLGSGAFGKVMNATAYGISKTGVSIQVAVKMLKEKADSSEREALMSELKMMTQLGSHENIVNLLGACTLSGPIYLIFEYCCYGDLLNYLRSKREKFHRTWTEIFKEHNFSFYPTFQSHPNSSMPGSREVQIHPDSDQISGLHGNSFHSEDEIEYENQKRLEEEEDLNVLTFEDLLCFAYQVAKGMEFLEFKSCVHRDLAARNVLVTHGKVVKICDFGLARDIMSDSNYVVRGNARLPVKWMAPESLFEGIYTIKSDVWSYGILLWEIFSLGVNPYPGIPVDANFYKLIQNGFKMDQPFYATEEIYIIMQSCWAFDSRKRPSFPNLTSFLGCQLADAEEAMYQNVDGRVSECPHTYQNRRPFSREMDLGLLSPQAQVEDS
The assay is described as follows: WT FLT3 Lance Ultra TR-FRET kinase assay. Type of assay: biochemical. The source says: (§2) High throughput 384-well Lance Ultra TR-FRET based kinase assays were established for the WT FLT3 and FLT3-ITD enzymes and employed a ULight-labeled peptide […] and FLT3 proteins labelled with Eu-conjugated antibody […] (WuXi Aptec). The principle of TR-FRET is based on transfer of energy between a donor and acceptor fluorophore that results when the fluorophores are within close proximity (˜100 Å) of each other. Recombinant WT FLT3 (#PR4666C, M.W. 48.6 kDa) was purchased from Invitrogen and FLT3-ITD (FLT3-ITD-W51, #F-12-12CG-10, M.W. 76 kDa) was purchased from Signalchem. Optimal assay conditions for the WT FLT3 enzyme assay were as follows: 0.5 nM FLT3 protein, 50 nM ULight-JAK-1 (Tyr1023) substrate peptide (PerkinElmer #TRF0121), 100 μM ATP, 60 min reaction time. Optimal assay conditions for the FLT3-ITD enzyme assay were as follows: 0.0625 nM FLT3-ITD protein, 50 nM ULight-JAK-1 (Tyr1023) substrate peptide, 50 μM ATP, 90 min reaction time. Briefly, 11 dose 3× serial dilutions were prepared for the test compounds and the reference compound and 100 nanoliters transferred to appropriate wells of 384-well assay plates. Five microliters of 2× enzyme/peptide were added into assay wells, assay plates centrifuged at 1000 rpm for about 30 seconds, sealed with sealing film and incubated for 30 min at 23° C. Assay buffer comprised 50 mM HEPES (pH 7.5), 1 mM EDTA, 0.01% Brij-35, 10 mM MgCl2 and 2 mM DTT. Next 5 μl of a 2× ATP mixture were added into the assay wells and the plates centrifuged at 1000 rpm about 30 seconds, sealed with sealing film and incubated for 23° C. for appropriate duration. Following assay incubation (30 min for WT FLT3 and 60 min for FLT3-ITD) 10 μl 2× Detection Mixture (Eu-W1024 Anti-phosphotyrosine (PT66) 2 nM and EDTA 10 mM) was added to assay wells, assay plates centrifuge at 1000 rpm about 1 minutes, sealed with sealing film and incubated at 23° C. for 60 minutes. Assay plates were read on a Perkin Elmer Envision reader at two wavelengths (665/615) and the ratio of […] calculated.
(§3) Data was expressed as % of inhibition relative to the vehicle control and calculated as follows:
(§4) Results were analyzed by XLFIT5 as % inhibition vs. log [compound concentration] and IC50 values were calculated by non-linear regression using four parameter-logistic equation. Fit=(A+((B−A)/(1+((C/x)^D)))). Res=(y−fit).
For orientation: In TR-FRET formats the signal depends on donor and acceptor labels being close together.

Another assay has as its target T2, FLT3-ITD (Homo sapiens, UniProt P36888, DUP595-601).
T2 construct: purchased Signalchem F-12-12CG-10
T2 sequence (P36888 with tags, fused parts or gaps DUP595-601 limits assumed): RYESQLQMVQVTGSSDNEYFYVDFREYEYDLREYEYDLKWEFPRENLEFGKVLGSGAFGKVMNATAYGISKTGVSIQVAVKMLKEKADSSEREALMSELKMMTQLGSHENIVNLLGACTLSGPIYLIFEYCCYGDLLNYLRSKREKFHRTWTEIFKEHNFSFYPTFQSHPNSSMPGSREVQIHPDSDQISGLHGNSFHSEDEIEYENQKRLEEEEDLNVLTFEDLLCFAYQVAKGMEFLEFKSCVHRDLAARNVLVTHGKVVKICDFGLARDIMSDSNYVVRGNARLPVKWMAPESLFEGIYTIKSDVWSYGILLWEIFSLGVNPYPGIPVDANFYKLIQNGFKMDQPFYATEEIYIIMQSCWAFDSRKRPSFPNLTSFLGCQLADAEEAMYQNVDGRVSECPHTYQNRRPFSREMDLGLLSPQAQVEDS
Kind of assay: FLT3-ITD Lance Ultra TR-FRET kinase assay. Type of assay: biochemical.
Source text: as §2, §3, §4

The mark [1] stands for this setting: 96 h, IC50 (4 days), CellTiter-Glo, read-out: MOLM-13 IC50.
[2] abbreviates: MV4-11, 96 h, MV-4:11 cells, IC50 (4 days), CellTiter-Glo, read-out: MV-4:11 IC50.
Where [3] appears, read: K562, 96 h, K-562 cells, IC50 (4 days), CellTiter-Glo, read-out: K-562 IC50.

For the molecule `CCc1nc(Nc2cccc([C@@H](C)CNC(=O)CN(C)C(=O)/C=C/CN(C)C)c2)c(C(N)=O)nc1CC` [Compound 503, (R, E)-3-((3-(1-(2-(4-(dimethylamino)-N-methylbut-2-enamido)acetamido)propan-2-yl)phenyl)amino)-5,6-diethylpyrazine-2-carboxamide], the concentration for half-maximal inhibition (IC50) with MOLM-13 (setting [1]) is < 1 nM; with MV-4-11 (setting [2]), < 1 nM; in the assay on K-562 (setting [3]) it was > 500 nM; on WT FLT3 it was 0.201 to 0.5 nM; at FLT3-ITD it was 0.501 to 1 nM.
As to `Cc1nc(C(N)=O)c(Nc2cccc(CCNC(=O)[C@H](C)N(C)C(=O)/C=C/CN(C)C)c2)nc1C(C)C` [Compound 305, (S,E)-3-((3-(2-(2-(4-(dimethylamino)-N-methylbut-2-enamido)propanamido)ethyl)phenyl)amino)-5-isopropyl-6-methylpyrazine-2-carboxamide], the 50% inhibitory concentration (IC50) with MOLM-13 (setting [1]) was 1 to 10 nM; with MV-4-11 (setting [2]), 1 to 10 nM; in the assay on K-562 (setting [3]), > 500 nM; against WT FLT3, > 1 nM; at FLT3-ITD it was > 1 nM.
For `CCc1nc(C(N)=O)c(Nc2cc(F)cc(CCNC(=O)[C@H](C)N(C)C(=O)/C=C/CN(C)C)c2)nc1N(C)C` [Compound 158, (S,E)-5-(dimethylamino)-3-((3-(2-(2-(4-(dimethylamino)-N-methylbut-2-enamido)propanamido)ethyl)-5-fluorophenyl)amino)-6-ethylpyrazine-2-carboxamide], the concentration for half-maximal inhibition (IC50) is < 1 nM in the assay on MOLM-13 (setting [1]); < 1 nM in the assay on MV-4-11 (setting [2]); > 500 nM in the assay with K-562 (setting [3]); 0.101 to 0.2 nM on WT FLT3; 0.101 to 0.2 nM against FLT3-ITD.
`CCc1nc(C(N)=O)c(Nc2cccc(CCNC(=O)CN(C)C(=O)/C=C/CN3CCC3)c2)nc1CC(C)C` [Compound 601, (E)-3-((3-(2-(2-(4-(azetidin-1-yl)-N-methylbut-2-enamido)acetamido)ethyl)phenyl)amino)-6-ethyl-5-isobutylpyrazine-2-carboxamide]: the IC50 was 1 to 10 nM with MOLM-13 (setting [1]); < 1 nM with MV-4-11 (setting [2]); > 500 nM in the assay with K-562 (setting [3]); > 1 nM on WT FLT3; 0.501 to 1 nM against FLT3-ITD.
The corresponding values for `C#Cc1nc(C(N)=O)c(Nc2cccc(CCNC(=O)CN(C)C(=O)/C=C/CN(C)C)c2)nc1N(C)C(C)C` [Compound 327, (E)-3-((3-(2-(2-(4-(dimethylamino)-N-methylbut-2-enamido)acetamido)ethyl)phenyl)amino)-6-ethynyl-5-(isopropyl (methyl)amino) pyrazine-2-carboxamide] are 1 to 10 nM, 10 to 100 nM, > 500 nM, 0.501 to 1 nM and 0.201 to 0.5 nM.
The corresponding values for `C=Cc1nc(C(N)=O)c(Nc2cccc(CCNC(=O)CN(C)C(=O)/C=C/CN(C)C)c2)nc1N(C)C(C)C` [Compound 328, (E)-3-((3-(2-(2-(4-(dimethylamino)-N-methylbut-2-enamido)acetamido)ethyl)phenyl)amino)-5-(isopropyl(methyl)amino)-6-vinylpyrazine-2-carboxamide] are 10 to 100 nM, < 1 nM, > 500 nM, 0.201 to 0.5 nM and 0.201 to 0.5 nM.
Take `CCc1nc(C(N)=O)c(Nc2ccnc(CCNC(=O)CN(C)C(=O)/C=C/CN3CCC3)c2)nc1C1CC1` [Compound 520, (E)-3-((2-(2-(2-(4-(azetidin-1-yl)-N-methylbut-2-enamido)acetamido)ethyl)pyridin-4-yl)amino)-5-cyclopropyl-6-ethylpyrazine-2-carboxamide]: the IC50 with MOLM-13 (setting [1]) is 1 to 10 nM; with MV-4-11 (setting [2]), 1 to 10 nM; in the assay on K-562 (setting [3]), > 500 nM; on WT FLT3, > 1 nM; at FLT3-ITD it was 0.501 to 1 nM.
Take `C=CC(=O)N(C)CC(=O)NCCc1cccc(Nc2nc(N(C)CC)c(CC)nc2C(N)=O)c1` [Compound 511, 6-ethyl-5-(ethyl(methyl)amino)-3-((3-(2-(2-(N-methylacrylamido)acetamido)ethyl)phenyl)amino) pyrazine-2-carboxamide]: the IC50 with MOLM-13 (setting [1]) was < 1 nM; in the assay on MV-4-11 (setting [2]), 1 to 10 nM; with K-562 (setting [3]) it was > 500 nM; on WT FLT3, 0.201 to 0.5 nM; on FLT3-ITD, ≤ 0.1 nM.
The corresponding values for `C=CC(=O)N(C)[C@@H](C)C(=O)NCCc1cccc(Nc2nc(N(C)C)c(CC)nc2C(N)=O)c1` [Compound 213, (S)-5-(dimethylamino)-6-ethyl-3-((3-(2-(2-(N-methylacrylamido)propanamido)ethyl)phenyl)amino)pyrazine-2-carboxamide] are 1 to 10 nM, < 1 nM, > 500 nM, 0.501 to 1 nM and 0.101 to 0.2 nM.
For `C=CC(=O)N(C)CC(=O)NCCc1cccc(Nc2nc(N(C)C(C)C)c(CC)nc2C(N)=O)c1` [Compound 308, 6-ethyl-5-(isopropyl(methyl)amino)-3-((3-(2-(2-(N-methylacrylamido)acetamido)ethyl)phenyl)amino)pyrazine-2-carboxamide] the same measures were 1 to 10 nM, 1 to 10 nM, > 500 nM, 0.201 to 0.5 nM and 0.101 to 0.2 nM.
Consider `C=CC(=O)Nc1cccc(Nc2nc(N3CCC[C@H](NC(=O)c4ccc(C5CC5)cc4)[C@@H]3C)cnc2C(N)=O)c1` [Compound C-1, reference compound], for which the “Ymax in MOLM-13 cells” value in the assay with MOLM-13 was found to be 0%. For the same molecule, the IC50 is > 500 nM in the assay with MOLM-13 (setting [1]); > 100 nM with MOLM-13 (read-out: IC50 in MOLM-13 cells); > 500 nM in the assay with MV-4-11 (setting [2]); > 100 nM in the assay with MV-4-11 (MV4-11 cells, read-out: IC50 in MV4-11 cells); > 500 nM in the assay on K-562 (setting [3]); > 100 nM with K-562 (K562 cells, read-out: IC50 in K562 cells). Also, the IC50 against WT FLT3 and against FLT3-ITD was > 1 nM in each case. Further, in the assay on MV-4-11 (MV4-11 cells), the “Ymax in MV4-11 cells” value is reported as 9.7%. In addition, in the assay on K-562 (K562 cells), the “Ymax in K562 cells” value is listed as 0%.
